Values joined by “and” are separate entries in the source; they are usually repeats but may differ in a detail not shown here. Identical values can stand only once. Inconclusive results and toxic doses are left out.

In the assay the test system is BDF1 mice, P388 leukemia ip, median survival T/C. Briefly: NCI In Vivo Anticancer Drug Screen. Data for tumor model P388 Leukemia (intraperitoneal) in B6D2F1 (BDF1) mice. Particulars: endpoint: median survival time, higher = longer survival. The method in brief: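 Steps: implant the tumour, treat one group with compound and another with vehicle, record survival, then divide treated by control.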

The mark [1] stands for this setting: dose: 25.0 mg/kg/injection, schedule: Q01DX009 (ip), vehicle: saline with Tween-80.
Where [2] appears, read: dose: 50.0 mg/kg/injection, schedule: Q01DX009 (ip), vehicle: saline with Tween-80.
[3] abbreviates: dose: 100.0 mg/kg/injection, schedule: Q01DX009 (ip), vehicle: saline with Tween-80.
Where [4] appears, read: dose: 200.0 mg/kg/injection, schedule: Q01DX009 (ip), vehicle: saline with Tween-80.
Setting [5] is: dose: 25.0 mg/kg/injection, schedule: Q01DX009 (ip), vehicle: Klucel (hydroxypropylcellulose) (HPC).
The mark [6] stands for this setting: dose: 50.0 mg/kg/injection, schedule: Q01DX009 (ip), vehicle: Klucel (hydroxypropylcellulose) (HPC).
Where [7] appears, read: dose: 50.0 mg/kg/injection, schedule: Q01DX009 (ip), vehicle: water.
Setting [8] is: dose: 100.0 mg/kg/injection, schedule: Q01DX009 (ip), vehicle: water.
Setting [9] is: dose: 100.0 mg/kg/injection, schedule: Q04DX003 (ip), vehicle: water.
The mark [10] stands for this setting: dose: 100.0 mg/kg/injection, schedule: Q04DX003 (ip), vehicle: saline.
Setting [11] is: dose: 400.0 mg/kg/injection, schedule: Q01DX009 (ip), vehicle: saline with Tween-80.

Regarding `O=C(O)C(CCCCC1CCCCC1)CCC1CCCCC1` (configuration not stated), the T/C (dose: 50.0 mg/kg/injection, schedule: Q01DX001 (ip), vehicle: saline with Tween-80) was 100 % of control; the T/C (dose: 100.0 mg/kg/injection, schedule: Q01DX001 (ip), vehicle: saline with Tween-80) is 100 % of control; the T/C (dose: 200.0 mg/kg/injection, schedule: Q01DX001 (ip), vehicle: saline with Tween-80) was 100 % of control.
Turning to `CC(C)CN(CC(C)C)C(=O)c1ccc(Cl)c(Cl)c1`, the T/C is 91 % of control under setting [1], 103 % of control under setting [2], 107 % of control under setting [3] and 94 % of control under setting [4].
Consider `Cc1ccc(NC(=O)N(CCCCl)N=O)cc1`, for which the T/C runs as follows: under setting [5], 105 % of control; under setting [6], 119 % of control; (dose: 100.0 mg/kg/injection, schedule: Q01DX009 (ip), vehicle: Klucel (hydroxypropylcellulose) (HPC)) 111 % of control; (dose: 200.0 mg/kg/injection, schedule: Q01DX009 (ip), vehicle: Klucel (hydroxypropylcellulose) (HPC)) 95 % of control.
On to `CC[CH2][Sn]([CH2]CC)([CH2]CC)[O][Sn]([CH2]CC)([CH2]CC)[CH2]CC`, for which the T/C (dose: 0.25 mg/kg/injection, schedule: Q01DX009 (ip), vehicle: saline with Tween-80) was 90 % of control; the T/C (dose: 0.25 mg/kg/injection, schedule: Q04DX003 (ip), vehicle: saline with Tween-80) is 100 % of control; the T/C (dose: 0.5 mg/kg/injection, schedule: Q01DX009 (ip), vehicle: saline with Tween-80) was 95 % of control; the T/C (dose: 0.5 mg/kg/injection, schedule: Q04DX003 (ip), vehicle: saline with Tween-80) was 104 % of control; the T/C (dose: 1.0 mg/kg/injection, schedule: Q01DX009 (ip), vehicle: saline with Tween-80) is 100 % of control; the T/C (dose: 1.0 mg/kg/injection, schedule: Q04DX003 (ip), vehicle: saline with Tween-80) was 100 % of control.
With `COc1cccc2c1C(=O)c1c(O)c3c(c(O)c1C2=O)CC(O)(C(C)=O)CC3O` (configuration not stated), the T/C is 95 % of control and 104 % of control (dose: 1.25 mg/kg/injection, schedule: Q01DX001 (ip), vehicle: saline); 100 % of control and 110 % of control (dose: 2.5 mg/kg/injection, schedule: Q01DX001 (ip), vehicle: saline); 100 % of control (dose: 5.0 mg/kg/injection, schedule: Q01DX001 (ip), vehicle: saline); 100 % of control and 109 % of control (dose: 10.0 mg/kg/injection, schedule: Q01DX001 (ip), vehicle: saline).
On to `CC(=O)n1ncc2ccc([N+](=O)[O-])cc21`, for which the T/C is 103 % of control (dose: 6.25 mg/kg/injection, schedule: Q01DX009 (ip), vehicle: water); 97 % of control and 111 % of control (dose: 12.5 mg/kg/injection, schedule: Q01DX009 (ip), vehicle: water); 94 % of control (2×) and 108 % of control (dose: 25.0 mg/kg/injection, schedule: Q01DX009 (ip), vehicle: water); 94 % of control and 99 % of control under setting [7]; 94 % of control and 97 % of control and 105 % of control under setting [8]; 111 % of control under setting [9]. In addition, the T/C was 100 % of control (dose: 200.0 mg/kg/injection, schedule: Q01DX009 (ip), vehicle: water); 106 % of control (dose: 200.0 mg/kg/injection, schedule: Q04DX003 (ip), vehicle: water); 96 % of control (dose: 400.0 mg/kg/injection, schedule: Q01DX009 (ip), vehicle: water); 98 % of control (dose: 400.0 mg/kg/injection, schedule: Q04DX003 (ip), vehicle: water).
As for `C=C1C(=O)OC2C1CC/C(C)=C/CCC1(C)OC21` (configuration not stated), under “dose: 70.0 mg/kg/injection, schedule: Q01DX009 (ip), vehicle: Klucel (hydroxypropylcellulose) (HPC)”, the T/C is 116 % of control.
Take `CC(=O)OC1CCC2(C)CCCC(O)C2(O)C1` (configuration not stated): the T/C is 103 % of control under setting [3]; 110 % of control under setting [10]; 90 % of control (dose: 200.0 mg/kg/injection, schedule: Q04DX003 (ip), vehicle: saline); 103 % of control under setting [11]; 110 % of control (dose: 400.0 mg/kg/injection, schedule: Q04DX003 (ip), vehicle: saline).
Take `C=CC[N+](C)(CC=C)CC[N+](C)(CC=C)CC=C`: the T/C under setting [7] was 95 % of control; the T/C (dose: 50.0 mg/kg/injection, schedule: Q04DX003 (ip), vehicle: water) was 109 % of control; the T/C under setting [8] is 104 % of control; the T/C under setting [9] is 104 % of control; the T/C (dose: 150.0 mg/kg/injection, schedule: Q01DX009 (ip), vehicle: water) was 95 % of control.
Regarding `Cc1cc([N+](=O)[O-])cc(C)c1OC(=O)c1ccc(N=C(N)N)cc1`, the T/C by setting is: (dose: 6.25 mg/kg/injection, schedule: Q01DX009 (ip), vehicle: saline) 93 % of control; (dose: 12.5 mg/kg/injection, schedule: Q01DX009 (ip), vehicle: saline) 101 % of control; (dose: 12.5 mg/kg/injection, schedule: Q04DX003 (ip), vehicle: saline) 104 % of control; (dose: 25.0 mg/kg/injection, schedule: Q01DX009 (ip), vehicle: saline) 97 % of control; (dose: 25.0 mg/kg/injection, schedule: Q04DX003 (ip), vehicle: saline) 102 % of control; (dose: 50.0 mg/kg/injection, schedule: Q01DX009 (ip), vehicle: saline) 95 % of control. In addition, the T/C is, setting by setting: (dose: 50.0 mg/kg/injection, schedule: Q04DX003 (ip), vehicle: saline) 101 % of control; under setting [10], 95 % of control.
In the case of `CC(=O)OCc1cc2ccccc2nc1C`, the T/C was 100 % of control (dose: 100.0 mg/kg/injection, schedule: Q04DX003 (ip), vehicle: saline with Tween-80); 95 % of control under setting [4]; 104 % of control (dose: 200.0 mg/kg/injection, schedule: Q04DX003 (ip), vehicle: saline with Tween-80); 95 % of control under setting [11]; 100 % of control (dose: 400.0 mg/kg/injection, schedule: Q04DX003 (ip), vehicle: saline with Tween-80).
For `COC(OC)c1[nH]c(=S)[nH]c(=O)c1Cc1ccc(C)c(C)c1`, the T/C under setting [3] is 103 % of control, the T/C under setting [4] is 96 % of control and the T/C under setting [11] was 100 % of control.
Turning to `Cc1cc(C)n(CO)n1`, the T/C was 96 % of control under setting [5]; 107 % of control under setting [6]; 108 % of control (dose: 100.0 mg/kg/injection, schedule: Q04DX003 (ip), vehicle: Klucel (hydroxypropylcellulose) (HPC)); 100 % of control (dose: 200.0 mg/kg/injection, schedule: Q04DX003 (ip), vehicle: Klucel (hydroxypropylcellulose) (HPC)).
On to `Cc1cc2nc(Oc3ccccc3)nc(=O)n2c(C)n1`, for which the T/C reads like this: (dose: 12.5 mg/kg/injection, schedule: Q01DX009 (ip), vehicle: saline with Tween-80) 109 % of control; under setting [1], 114 % of control; under setting [2], 97 % of control.
For the molecule `N=[N+]=CC(=O)OCC(N)C(=O)O` (configuration not stated), the T/C reads like this: (dose: 3.13 mg/kg/injection, schedule: Q01DX010 (ip), vehicle: saline) 150 % of control; (dose: 6.25 mg/kg/injection, schedule: Q01DX010 (ip), vehicle: saline) 150 % of control and 165 % of control; (dose: 10.0 mg/kg/injection, schedule: Q01DX010 (ip), vehicle: water) 120 % of control; (dose: 12.5 mg/kg/injection, schedule: Q01DX010 (ip), vehicle: saline) 195 % of control and 200 % of control; (dose: 15.0 mg/kg/injection, schedule: Q01DX010 (ip), vehicle: water) 120 % of control; (dose: 25.0 mg/kg/injection, schedule: Q01DX010 (ip), vehicle: saline) 115 % of control.
In the case of `N=c1ccn(C(=O)C2=Cc3ccccc3OC2)cc1`, the T/C reads like this: (dose: 1.25 mg/kg/injection, schedule: Q01DX009 (ip), vehicle: saline with Tween-80) 88 % of control and 112 % of control; (dose: 2.5 mg/kg/injection, schedule: Q01DX009 (ip), vehicle: saline with Tween-80) 96 % of control and 100 % of control; (dose: 5.0 mg/kg/injection, schedule: Q01DX009 (ip), vehicle: saline with Tween-80) 92 % of control and 100 % of control and 112 % of control; (dose: 5.0 mg/kg/injection, schedule: Q04DX003 (ip), vehicle: saline with Tween-80) 118 % of control; (dose: 10.0 mg/kg/injection, schedule: Q04DX003 (ip), vehicle: saline with Tween-80) 95 % of control; (dose: 20.0 mg/kg/injection, schedule: Q04DX003 (ip), vehicle: saline with Tween-80) 90 % of control.

The values are drawn from PubChem BioAssay AID328 (DTP/NCI, 2004).
